Results as given in patent US20070249555A1, “Use of Atp Analogues for Treatment of Cardiovascular Diseases” (INSTITUT NATIONAL DE LA SANTE ET DE LA RECHERCHE MEDICALE …, priority 2004, published 2007).

Legend:
[1] = system: HepG2 cells; assay: TG-HDL2 internalization by HepG2 cells; assay type: cell-based, human; conditions: 10 min at 37° C.; for effect on the stimulation by ADP of the TG-HDL2 internalization: ADP 100 nM + A2P5P 100 μM or MRS2179 10 μM
Protocol: Cells were incubated for 10 minutes at 37° C. with 75 μg/ml^125I-TG-HDL2 without (control) or with apolipoprotein A-I 10 μg/ml (a), ADP 100 nM (b), AR-C69931MX 100 nM (c), ADP 100 nM+AR-C69931MX 100 nM (d), ADP 100 nM+[…] 100 μM (e), ADP 100 nM+MRS2179 10 μM (f). […] Internalization assays were performed as described in Guendouzi et al., (Biochemistry, 1998, 37: 14974-80) on HepG2 cells, obtained from the American Type Culture Collection ([…]). Cells were incubated for 10 minutes at 37° C. with 75 μg/ml of either ^125I-TG-HDL2, ^125I-HDL3 or ^125I-LDL. After washing and dissociation at 4° C. in phosphate buffered saline (PBS), cell radioactivity was determined using a Wallac 1261 multigamma apparatus. Prior experiments, cells were plated in polylysine-coated 24-multiwell plates (Falcon) at 4×10^4 cells per well. Cells were grown in Dulbecco's modified Eagles medium supplemented with 10% fetal calf serum, 100 units/ml penicillin, and 100 μg/ml streptomycin at 37° C. in a 5% CO2 and 95% air incubator. Medium was changed every 2 or 3 days, and the cells were subcultured every 7-8 days. Results are expressed as a percentage of internalization with respect to the control value (set at 0). Control corresponded to a basal value of internalization, amounting to 400 ng, 300 ng, 200 ng of TG-HDL2, HDL3 and LDL per mg of cells protein respectively for 10 minutes. Data as a mean ±SEM of at least 7, 5, 6 independent experiments, for TG-HDL2, HDL3 and LDL respectively.

[2] = target: T1, human P2Y13 receptor (Homo sapiens, UniProt Q9BPV8); assay: TG-HDL2 internalization by HepG2 cells after P2Y13 receptor silencing by siRNA; assay type: cell-based; conditions: HepG2, P2Y13 siRNA 100 nM, 48 h; apoA-I 10 μg/ml, ADP 100 nM, AR-C69931MX 100 nM
T1 construct: host or cells: HepG2
T1 sequence (Q9BPV8 1-354): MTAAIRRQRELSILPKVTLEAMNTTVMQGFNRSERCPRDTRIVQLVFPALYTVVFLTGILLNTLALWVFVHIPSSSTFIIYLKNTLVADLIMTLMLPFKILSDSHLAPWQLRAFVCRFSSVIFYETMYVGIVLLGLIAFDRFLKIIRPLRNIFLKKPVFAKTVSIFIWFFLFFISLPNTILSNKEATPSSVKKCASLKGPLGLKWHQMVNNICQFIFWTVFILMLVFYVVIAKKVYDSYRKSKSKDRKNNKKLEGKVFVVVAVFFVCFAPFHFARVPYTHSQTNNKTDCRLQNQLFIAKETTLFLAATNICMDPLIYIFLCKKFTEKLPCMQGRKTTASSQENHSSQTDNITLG
Protocol: Experiment was performed as in FIG. 2A with non-specific control siRNA (a, b, c) or with siRNA directed to human P2Y13 receptor (d, e, f, g) (n>7); (*) p<0.05 (unpaired t-test).
(§1) Internalization assays were performed as described in Guendouzi et al., (Biochemistry, 1998, 37: 14974-80) on HepG2 cells, obtained from the American Type Culture Collection ([…]). Cells were incubated for 10 minutes at 37° C. with 75 μg/ml of either ^125I-TG-HDL2, ^125I-HDL3 or ^125I-LDL. After washing and dissociation at 4° C. in phosphate buffered saline (PBS), cell radioactivity was determined using a Wallac 1261 multigamma apparatus.
(§2) The silencing of the different P2Y receptors were carried-out using the siRNA technique. The siRNA sequenced targeting human P2Y13 receptor (Gene Bank GB/EMBL/DDBJ accession number AF295368) was from position 406 or 359 relative to the start codon. The siRNA duplex (21-nt-RNAs) in deprotected and desalted form, the siRNA targeting human P2Y1 receptor (a mix of 4 siRNAs, M-005689), and the non-specific control siRNA (D-001206-01) were purchased from Dharmacon Inc. Subconfluent HepG2 cells were transiently transfected with siRNAs (final concentration, 100 nM) using Oligofectamine™ according to the manufacturer's protocole (Invitrogen). Cells were usually assayed 48 hours after transfection. Specific silencing effect was confirmed by at least three independent experiments.
Results are expressed as a percentage of internalization with respect to the control value (set at 0). Control corresponded to a basal value of internalization, amounting to 400 ng, 300 ng, 200 ng of TG-HDL2, HDL3 and LDL per mg of cells protein respectively for 10 minutes. Data as a mean ±SEM of at least 7, 5, 6 independent experiments, for TG-HDL2, HDL3 and LDL respectively.

[3] = target: T2, human P2Y1 receptor (Homo sapiens, UniProt P47900); assay: TG-HDL2 internalization by HepG2 cells after P2Y1 receptor silencing by siRNA; assay type: cell-based; conditions: HepG2, pool of 4 P2Y1 siRNAs 100 nM, 48 h; apoA-I 10 μg/ml, ADP 100 nM, AR-C69931MX 100 nM
T2 construct: host or cells: HepG2
Protocol: HepG2 cells were transiently transfected with siRNA designated to human P2Y1 receptor (columns d, e, f, g) or with non specific siRNA as control (a, b, c). 48 hours later, cells were incubated for 10 minutes at 37° C. with 75 μg/ml ^125I-TG HDL2 without (control) or with apolipoprotein A-I 10 μg/ml (a and d), ADP 100 nM (b and e), AR-C69931MX 100 nM (c and f), PBS (g). Data are expressed as a percentage of internalized radioactivity with respect to the control value (set as 0) (n>5); (*) p<0.05 (unpaired t-test).
as §1, §2
Results are expressed as a percentage of internalization with respect to the control value (set at 0). Control corresponded to a basal value of internalization, amounting to 400 ng, 300 ng, 200 ng of TG-HDL2, HDL3 and LDL per mg of cells protein respectively for 10 minutes. […]

T2 sequence (P47900 whole entry): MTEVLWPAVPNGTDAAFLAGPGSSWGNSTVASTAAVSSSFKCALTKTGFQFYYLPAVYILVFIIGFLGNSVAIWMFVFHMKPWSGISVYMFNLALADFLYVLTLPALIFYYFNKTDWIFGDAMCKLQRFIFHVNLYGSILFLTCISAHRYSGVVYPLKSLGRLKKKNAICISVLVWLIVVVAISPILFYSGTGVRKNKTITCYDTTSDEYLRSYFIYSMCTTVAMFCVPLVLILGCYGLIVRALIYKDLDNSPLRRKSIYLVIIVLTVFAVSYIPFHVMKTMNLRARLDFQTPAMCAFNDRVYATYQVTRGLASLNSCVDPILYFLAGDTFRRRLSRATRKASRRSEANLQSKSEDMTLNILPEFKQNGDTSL

Compound	effect on the stimulation by ADP of the TG-HDL2 internalization [1]	effect of P2Y13 receptor silencing on TG-HDL2 endocytosis after stimulation [2]	effect of P2Y1 receptors silencing on the stimulation of TG-HDL2 endocytosis [3]	internalization of 125I-TG-HDL2 by HepG2 cells, increase above control cells ([1]; 75 μg/ml 125I-TG-HDL2, apoA-I 10 μg/ml, ADP 100 nM, AR-C69931MX 100 nM alone)
Nc1ncnc2c1ncn2[C@@H]1O[C@H](COP(=O)(O)O)[C@@H](O)[C@H]1OP(=O)(O)O [A2P5P]	no effect	–	–	–
CNc1ncnc2c1ncn2[C@H]1C[C@H](OP(=O)(O)O)[C@@H](COP(=O)(O)O)O1 [MRS2179]	no effect	–	–	–
apoA-I: HDL apolipoprotein A-I; generates ADP through activation of the ectopic form of ATP synthase	–	dramatic inhibition	no effect	20%
